According to patent US7041463B2, “Orthologues of human receptors and methods of use” (Pharmacopeia Drug Discovery, Inc., priority 2000, dated 2006):

Experiments:
[1] = molecular target: rhesus macaque B1 receptor; experiment: [3H]-des-Arg10-kallidin binding, 293E membranes, rhesus macaque B1; set-up: species or system rhesus macaque (Macaca mulatta); settings: 0.6 nM [3H]-dAKd
Protocol: (§1) Membrane preparations for use in accordance with the methods of the present invention were generated as follows. 293E cells expressing B1 receptors were harvested and pelleted. Cells were washed once with PBS and once with a membrane buffer (for example, 10 mM HEPES pH 7.5, 1 μM phosphoramidon, 3 μM amastatin, 1 μM captopril, 2 μM dithiothreitol (DTT)). Cells were resuspended in membrane buffer and Dounce homogenized on ice 35 times. The membranes were collected by centrifugation at 15,000×g for 30 min. at 4° C. and resuspended in membrane buffer containing 0.2% bovine serum albumin (BSA) at a final concentration of approximately 5×10^7 cell equivalents per ml. Aliquots were flash frozen and stored at −80° C. Frozen aliquots were subsequently thawed, diluted, and sonicated on ice using a Branson Sonifier® 250 (4×5 sec, 40% output).
(§2) Prior to use in a binding assay, a membrane preparation is “calibrated” as described below to determine the amount of membrane preparation to be used. […]
(§3) The method of the present invention employs a binding assay such as the one described below. […] 50 μl of scintillation fluid was added to each well and plates were counted in a Wallac Microbeta® TriLux for 10 min. per well.

rabbit B1 = molecular target: T1, rabbit B1 (Oryctolagus cuniculus, UniProt P48748); experiment: [3H]-des-Arg10-kallidin binding, 293E membranes, rabbit B1; settings: 0.6 nM [3H]-dAKd
T1 construct: expressed in transfected cells; host or cells: 293-EBNA (293E) cells, membranes
T1 sequence (P48748 1-352): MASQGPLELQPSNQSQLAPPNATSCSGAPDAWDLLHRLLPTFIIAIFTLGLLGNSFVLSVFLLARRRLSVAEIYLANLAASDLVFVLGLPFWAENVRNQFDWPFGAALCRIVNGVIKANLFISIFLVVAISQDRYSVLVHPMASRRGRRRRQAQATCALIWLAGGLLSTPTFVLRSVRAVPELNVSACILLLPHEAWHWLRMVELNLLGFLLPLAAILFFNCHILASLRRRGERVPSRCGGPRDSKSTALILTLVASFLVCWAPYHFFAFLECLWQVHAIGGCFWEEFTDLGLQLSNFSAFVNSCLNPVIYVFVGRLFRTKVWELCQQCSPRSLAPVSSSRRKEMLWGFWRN
Protocol: as §1, §2, §3

pig B1 = experiment: [3H]-des-Arg10-kallidin binding, 293E membranes, pig B1; settings: 0.6 nM [3H]-dAKd
Chain of pig B1 (as listed by the source): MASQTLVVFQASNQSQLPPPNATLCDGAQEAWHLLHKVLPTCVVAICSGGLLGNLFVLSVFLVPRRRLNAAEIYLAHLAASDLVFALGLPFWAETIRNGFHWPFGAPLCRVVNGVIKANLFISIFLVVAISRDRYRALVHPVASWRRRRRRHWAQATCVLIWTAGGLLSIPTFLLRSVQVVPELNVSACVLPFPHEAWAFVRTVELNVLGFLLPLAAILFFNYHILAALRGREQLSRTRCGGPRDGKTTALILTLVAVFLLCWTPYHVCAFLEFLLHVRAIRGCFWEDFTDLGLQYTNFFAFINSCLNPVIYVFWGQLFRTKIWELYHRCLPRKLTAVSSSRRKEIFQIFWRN
Protocol: as §1, §2, §3

tree shrew B1 receptor = experiment: [3H]-des-Arg10-kallidin binding, 293E membranes, tree shrew B1; set-up: species or system tree shrew (Tupaia minor); settings: 0.6 nM [3H]-dAKd
Chain of tree shrew B1 receptor (as listed by the source): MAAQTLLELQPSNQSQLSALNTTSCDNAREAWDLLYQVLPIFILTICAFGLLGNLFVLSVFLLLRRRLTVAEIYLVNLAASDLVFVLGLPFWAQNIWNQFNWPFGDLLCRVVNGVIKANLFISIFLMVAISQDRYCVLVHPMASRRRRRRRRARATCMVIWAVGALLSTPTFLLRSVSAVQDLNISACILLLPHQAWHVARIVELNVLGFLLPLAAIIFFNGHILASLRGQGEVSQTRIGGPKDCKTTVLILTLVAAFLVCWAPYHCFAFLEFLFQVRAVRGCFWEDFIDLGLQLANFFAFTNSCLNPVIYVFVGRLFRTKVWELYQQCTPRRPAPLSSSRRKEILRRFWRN
Protocol: as §1, §2, §3

dog B1 = molecular target: T2, dog B1 (Canis lupus familiaris, UniProt Q9BDQ5, D322E/F324Y/R319K); experiment: [3H]-des-Arg10-kallidin binding, 293E membranes, dog B1 (canine/human chimera); settings: 0.6 nM [3H]-dAKd
T2 construct: the chimeric canine/human receptor described above was used in the experiments described below; C-terminal cytoplasmic tail of human bradykinin B1 receptor (fusion partner of the chimera); expressed in transfected cells; host or cells: 293-EBNA (293E) cells, membranes
T2 sequence (Q9BDQ5 with tags, fused parts or gaps R319K/D322E/F324Y): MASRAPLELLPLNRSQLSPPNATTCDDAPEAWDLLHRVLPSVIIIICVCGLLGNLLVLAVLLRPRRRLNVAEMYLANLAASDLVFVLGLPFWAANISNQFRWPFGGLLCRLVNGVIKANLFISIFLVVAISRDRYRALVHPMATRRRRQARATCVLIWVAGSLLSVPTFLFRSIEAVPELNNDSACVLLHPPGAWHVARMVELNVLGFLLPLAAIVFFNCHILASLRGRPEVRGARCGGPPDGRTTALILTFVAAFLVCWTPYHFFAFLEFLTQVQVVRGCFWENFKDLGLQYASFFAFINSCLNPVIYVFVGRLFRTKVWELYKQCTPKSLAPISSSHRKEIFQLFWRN
Text: Additionally, a canine/human chimeric bradykinin B1 receptor comprising amino acids 1 to 320 of the canine sequence and amino acids 319–353 of human bradykinin B1 receptor was generated. Any number of chimeric molecules, for example, a chimera comprising amino acids 1–315 of the canine sequence and amino acids 314–353 of the human sequence can be used.
as §1, with “Frozen aliquots were subsequently thawed, diluted, and sonicated on ice using a Branson Sonifier® 250 (4×5 sec, 40% output).” left out
as §3

human B1 receptor = molecular target: T3, human B1 receptor (Homo sapiens, UniProt P46663); experiment: [3H]-des-Arg10-kallidin binding, 293E membranes, human B1; settings: 0.6 nM [3H]-dAKd
T3 construct: expressed in transfected cells; host or cells: 293-EBNA (293E) cells, membranes
T3 sequence (P46663 1-353): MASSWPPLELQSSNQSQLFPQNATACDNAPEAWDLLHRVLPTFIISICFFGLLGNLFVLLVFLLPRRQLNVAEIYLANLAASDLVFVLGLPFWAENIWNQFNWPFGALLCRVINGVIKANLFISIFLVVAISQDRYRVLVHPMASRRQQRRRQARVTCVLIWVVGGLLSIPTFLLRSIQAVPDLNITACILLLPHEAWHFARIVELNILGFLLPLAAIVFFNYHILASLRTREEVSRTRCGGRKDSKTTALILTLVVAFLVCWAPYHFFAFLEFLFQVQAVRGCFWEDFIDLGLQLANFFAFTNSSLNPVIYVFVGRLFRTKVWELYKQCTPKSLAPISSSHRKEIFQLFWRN
Text: Prior to use in a binding assay, a membrane preparation is “calibrated” as described below to determine the amount of membrane preparation to be used. A frozen sample of a membrane preparation is thawed and the preparation diluted in assay buffer to obtain several different concentrations of membranes, for example, 1:5, 1:10, 1:20, 1:40 and so on. The diluted membrane preparation is sonicated in a bath style sonicator for 15 seconds at room temperature. […]

cloned rat NK1 receptor = cloned rat NK1 receptor (Rattus norvegicus, UniProt P14600); settings: cited from earlier work
Chain of cloned rat NK1 receptor (P14600 whole entry): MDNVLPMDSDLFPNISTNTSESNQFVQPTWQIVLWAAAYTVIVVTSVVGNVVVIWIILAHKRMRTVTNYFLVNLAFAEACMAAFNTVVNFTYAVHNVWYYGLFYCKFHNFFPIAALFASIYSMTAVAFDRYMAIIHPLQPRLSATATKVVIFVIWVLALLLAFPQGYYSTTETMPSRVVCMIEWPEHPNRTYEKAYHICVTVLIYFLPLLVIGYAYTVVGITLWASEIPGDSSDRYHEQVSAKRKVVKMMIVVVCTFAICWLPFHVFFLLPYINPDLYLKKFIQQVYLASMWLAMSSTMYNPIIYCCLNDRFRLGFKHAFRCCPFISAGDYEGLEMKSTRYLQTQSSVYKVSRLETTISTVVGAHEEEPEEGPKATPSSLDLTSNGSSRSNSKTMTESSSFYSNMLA

[2] = molecular target: T4, cholecystokinin-B receptor (Homo sapiens, UniProt P32239); settings: human receptor with valine 319 substituted by leucine vs human receptor; cited from earlier work
T4 sequence (P32239 1-447 V349L): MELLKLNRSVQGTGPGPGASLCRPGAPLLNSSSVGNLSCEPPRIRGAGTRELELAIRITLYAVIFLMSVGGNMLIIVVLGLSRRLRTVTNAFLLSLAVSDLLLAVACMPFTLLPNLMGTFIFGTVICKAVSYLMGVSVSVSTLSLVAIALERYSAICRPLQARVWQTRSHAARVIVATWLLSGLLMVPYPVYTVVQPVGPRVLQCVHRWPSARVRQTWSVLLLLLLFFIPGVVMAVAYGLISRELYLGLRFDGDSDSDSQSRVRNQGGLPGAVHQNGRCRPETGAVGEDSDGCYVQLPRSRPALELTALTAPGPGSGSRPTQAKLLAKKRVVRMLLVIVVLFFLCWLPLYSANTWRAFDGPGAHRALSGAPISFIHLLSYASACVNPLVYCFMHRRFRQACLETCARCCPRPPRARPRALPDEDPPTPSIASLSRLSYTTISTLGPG

Chain of rhesus macaque B1 receptor (as listed by the source): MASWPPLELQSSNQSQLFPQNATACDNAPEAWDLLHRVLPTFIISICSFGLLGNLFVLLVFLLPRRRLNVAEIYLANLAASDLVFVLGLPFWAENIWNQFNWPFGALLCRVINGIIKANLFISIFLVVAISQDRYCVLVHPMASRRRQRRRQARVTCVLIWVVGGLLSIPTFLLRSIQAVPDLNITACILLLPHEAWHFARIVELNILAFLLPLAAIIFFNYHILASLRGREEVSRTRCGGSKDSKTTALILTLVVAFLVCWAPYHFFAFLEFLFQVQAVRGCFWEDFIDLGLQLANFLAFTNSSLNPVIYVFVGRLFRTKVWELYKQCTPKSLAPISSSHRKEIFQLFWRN

[des-Arg^9]BK (RPPGFSPF) [dABk]
affinity (K1) at rhesus macaque B1, in words [1]: inactivity | affinity (K1) at rabbit B1, in words (rabbit B1): weak activity | affinity (K1) at pig B1, in words (pig B1): weak activity | affinity (K1) at tree shrew B1, in words (tree shrew B1 receptor): inactivity | affinity (K1) at dog B1, in words (dog B1): low nM potency | affinity (K1) at human B1, in words (human B1 receptor): inactivity

COc1ccccc1CN[C@H]1C2CCN(CC2)[C@H]1C(c1ccccc1)c1ccccc1 [CP-96,345]
IC50 (cloned rat NK1 receptor): 0.04 µM

Cc1cccc(NC(=O)N[C@@H]2N=C(c3ccccc3)c3ccccc3N(C)C2=O)c1 [Compound L365260]
decrease of binding affinity [2]: 20 fold
